“And” between values parts separate entries of the source, which are not always exact repeats. Equal values may be shown once. Read-outs that look alike come from different tables or passages of the source.
Tests used:
P. falciparum 3D7 strain = experiment: Drug susceptibility assay for P. falciparum using HRP2 sandwich ELISA; assay type: cell-based; conditions: read-out: IC50 inhibition of P. falciparum parasites in culture
Method: The P. falciparum 3D7 strain was cultured and maintained according to the standard procedures with minor modifications. Cultures were maintained in RPMI 1640 (GibcoTM, Waltham, MA, USA) supplemented with 0.5% Albumax (GibcoTM), 50 mg/L hypoxanthine (Sigma-Aldrich), 2 gm/L D-glucose (Sigma-Aldrich), 2 gm/L sodium bicarbonate (Sigma-Aldrich), and 56 mg/L of gentamicin (Abbott, Chicago, IL, USA). Blood for parasite cultures was procured from volunteer blood donors with approval from the Institute Ethical Committee.
Samples from the continuous culture of P. falciparum were synchronised to obtain predominant rings of 0.25% parasitemia at 3% haematocrit. Compounds were made at a stock concentration of 10 mM in 100% DMSO, with the FDA-approved antimalarial dihydroartemisinin (a kind gift from IPCA Laboratories, Mumbai, India) as a control. Compound dilutions were made in RPMI 1640 to obtain the desired final test concentrations for the IC50 analysis.
The HRP2-sandwich ELISA assay was performed according to the standard protocol. Briefly, the PfHRP2 protein concentration in the culture wells, indicative of the level of parasitemia, is measured using a sandwich ELISA technique. Serial 2-fold dilutions of compounds (25 µL/well) were manually dispensed into standard 96-well microculture plates (Eppendorf). Subsequently, 200 µL of P. falciparum culture at 0.25% parasitemia (3% haematocrit) was added to each well. The plates were then incubated for 72 h at 37 °C in 5% CO2 in a humidified incubator. Plates were then subjected to freeze–thaw to achieve complete haemolysis. PfHRP2 levels in control and test samples were measured using a horseradish peroxidase enzyme-linked immunosorbent assay at 450 nm. GraphPad Prism 9.2.0 was used to perform non-linear regression analysis to determine the IC50 values.
(§1) Non-linear regression analysis was performed in GraphPad Prism 9.2.0 (San Diego, CA, USA) to fit four parameter dose–response curves using the formula: y = a + ((b − a)/(1 + 10^(Log(c) − x) × d)), where a and b are the minimum and maximum asymptotes respectively, c is the half-maximal inhibitory concentration value (IC50), and d is the slope at the steepest part of the curve (the Hill slope).

PfIMPα:TGS1-NLS-GFP = PfIMPα:TGS1-NLS-GFP (Plasmodium falciparum, UniProt Q8IAW0); experiment: AlphaScreen binding assay, inhibition of PfIMPα binding to TGS1-NLS-GFP; set-up: species or system P. falciparum
PfIMPα:TGS1-NLS-GFP, sequence (Q8IAW0 entry or part of it): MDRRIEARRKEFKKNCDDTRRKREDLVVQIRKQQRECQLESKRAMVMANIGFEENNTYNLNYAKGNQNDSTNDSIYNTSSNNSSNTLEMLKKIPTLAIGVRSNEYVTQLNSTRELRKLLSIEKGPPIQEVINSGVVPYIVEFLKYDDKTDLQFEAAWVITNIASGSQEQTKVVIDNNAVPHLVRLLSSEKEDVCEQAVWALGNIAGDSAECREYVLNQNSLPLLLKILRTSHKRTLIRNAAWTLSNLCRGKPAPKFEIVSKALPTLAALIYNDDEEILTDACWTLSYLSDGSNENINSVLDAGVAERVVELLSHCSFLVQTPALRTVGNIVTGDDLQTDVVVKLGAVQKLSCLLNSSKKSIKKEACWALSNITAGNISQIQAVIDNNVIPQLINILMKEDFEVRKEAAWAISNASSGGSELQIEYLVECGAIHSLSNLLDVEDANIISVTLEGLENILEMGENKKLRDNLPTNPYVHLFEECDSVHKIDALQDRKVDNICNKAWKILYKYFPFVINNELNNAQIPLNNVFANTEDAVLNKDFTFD

[1] = MTT assay for host cell cytotoxicity; assay type: cell-based; conditions: human, HFF cells (freshly confluent), mean ± SD (n = 2)
Method: The MTT assay was used to measure the cytotoxicity of the small molecules against the HFF cells as described. Briefly, freshly confluent HFF cells were incubated for 48 h in a 96-well culture plate at 37 °C in a humidified incubator (5% CO2 atmosphere) in the presence of increasing concentrations of compounds (total volume 200 uL). A 10 μL quantity of MTT reagent (Sigma Aldrich) prepared in complete DMEM medium was then added to each well, and incubation continued for a further 3 h. 150 μL of the medium containing the MTT reagent was then removed from each well and replaced with 150 μL DMSO. Plates were then incubated room temperature in the dark for 20 min, after which absorbance for each well was measured at 570 nm. Data were analysed in GraphPad Prism 9 software.

PfIMPα:MmIMPβ1 = PfIMPα:MmIMPβ1 (Plasmodium falciparum, UniProt Q8IAW0); experiment: AlphaScreen binding assay, inhibition of PfIMPα binding to MmIMPβ1
PfIMPα:MmIMPβ1, sequence (Q8IAW0 entry or part of it): as above
PfIMPα:MmIMPβ1, sequence (P70168 whole entry, further chain, the tested form may be a part): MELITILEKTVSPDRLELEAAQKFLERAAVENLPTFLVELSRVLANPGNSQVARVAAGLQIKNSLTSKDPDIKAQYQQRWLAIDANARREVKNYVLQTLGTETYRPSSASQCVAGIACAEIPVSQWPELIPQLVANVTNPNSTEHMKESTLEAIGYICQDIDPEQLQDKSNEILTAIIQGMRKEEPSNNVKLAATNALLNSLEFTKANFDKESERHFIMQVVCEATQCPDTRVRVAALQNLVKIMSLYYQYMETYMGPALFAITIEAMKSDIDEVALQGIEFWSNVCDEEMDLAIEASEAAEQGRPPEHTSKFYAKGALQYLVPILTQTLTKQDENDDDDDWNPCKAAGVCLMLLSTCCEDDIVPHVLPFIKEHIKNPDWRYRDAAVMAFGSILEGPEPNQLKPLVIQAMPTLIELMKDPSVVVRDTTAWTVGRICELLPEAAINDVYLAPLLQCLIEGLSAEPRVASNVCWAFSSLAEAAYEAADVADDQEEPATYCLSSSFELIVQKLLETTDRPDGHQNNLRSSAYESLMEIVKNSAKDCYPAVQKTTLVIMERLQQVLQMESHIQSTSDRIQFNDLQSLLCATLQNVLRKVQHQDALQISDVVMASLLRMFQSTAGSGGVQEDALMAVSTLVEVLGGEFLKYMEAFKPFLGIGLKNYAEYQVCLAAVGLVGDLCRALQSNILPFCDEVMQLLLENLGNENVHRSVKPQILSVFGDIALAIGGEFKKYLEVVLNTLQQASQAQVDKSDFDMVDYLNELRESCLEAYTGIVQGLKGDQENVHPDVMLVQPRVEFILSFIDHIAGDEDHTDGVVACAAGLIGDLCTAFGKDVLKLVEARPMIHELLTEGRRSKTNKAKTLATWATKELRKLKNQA
Method: (§2) IC50 analysis was performed in quadruplicate using an AlphaScreen binding assay as previously, using bacterially expressed glutathione S-transferase (GST)-C-terminally tagged PfIMPα and TgIMPα proteins, as well as SV40 T-ag-NLS-GFP fusion protein and MmIMPβ1 [11, 41]. As previously, nickel-acceptor and streptavidin-donor beads were used. The AlphaScreen signal was measured on a Perkin Elmer plate reader, and IC50 plots drawn using GraphPad Prism 9.0.2 (San Diego, CA, USA).
as §1

MmIMPα [2] = target: T1, MmIMPα (Mus musculus, UniProt P52293); experiment: Intrinsic tryptophan fluorescence assay, MmIMPα; assay type: binding; conditions: pooled, mean ± SEM (n = 3); IMPα 1 µM, 340 nm
T1 construct: GST; made in house
Method: (§3) Tryptophan fluorescence spectroscopy experiments were performed using a JASCO Fluorescence Spectrophotometer (JASCO, Hachioji, Tokyo, Japan) (0.5 mL quartz cuvette), with a fixed excitation wavelength of 295 nm and emission spectra collected between 310 and 400 nm with a slit width of 5 nm at 25 °C. Increasing concentrations of compounds in DMSO were incubated with the IMPαs (1 µM) in PBS for 5 min at room temperature prior to measurement. Data from three independent experiments were analysed using GraphPad Prism 10 (San Diego, CA, USA). Non-linear regression analysis was used to fit the one-site binding curves using the equation: y = Bmax * x/(Kd + x), where Bmax represents the maximum binding capacity and Kd is the dissociation constant, reflecting the concentration of ligand at which half-maximal binding is achieved.

[3] = system: T. gondii RH strain expressing a luciferase reporter (RH-Fluc) tachyzoites; experiment: T. gondii tachyzoite growth inhibition assay (luciferase) in HFF host cells; assay type: cell-based; conditions: 48 h, luminescence, mean ± SD (n = 3)
Method: A T. gondii RH strain expressing a luciferase reporter (RH-Fluc) was used to assess the effect of the inhibitors on growth as described. T. gondii tachyzoites were maintained and cultured at 37 °C in 5% CO2 in a humidified incubator using primary human foreskin fibroblasts (HFF, ATCC) maintained in Dulbecco’s modified Eagle medium (DMEM) (GibcoTM, Waltham, MA, USA) supplemented with 3.7 g/L sodium bicarbonate and 2.38 g/L HEPES, 10% Cosmic Calf serum (HycloneTM, Logan, UT, USA) and 20 mg/L gentamicin [46, 47]. Growth inhibition was monitored by luminescence, where 100 μL of culture medium without or with inhibitors, followed by 100 µL of DMEM containing 5000 parasites, were added to confluent monolayers of HFF cells in 96-well culture dishes (Eppendorf, Hamburg, Germany). After 48 h, 150 µL of the culture medium was discarded from each well, and 10 µL lysis buffer was added to lyse the parasites, followed by 50 μL of 2× luciferase assay reagent (Promega, Madison, WI, USA). Luminescence was then measured directly for 10 s using a Varioskan™ LUX multimode microplate reader (Thermo Fisher Scientific, Waltham, MA, USA). […]

TgIMPα [4] = target: T2, TgIMPα (Toxoplasma gondii, UniProt A0A125YID0); experiment: Far-UV CD spectroscopy, TgIMPα; assay type: binding; conditions: 30 or 80 μM compound
T2 sequence (A0A125YID0 entry or part of it): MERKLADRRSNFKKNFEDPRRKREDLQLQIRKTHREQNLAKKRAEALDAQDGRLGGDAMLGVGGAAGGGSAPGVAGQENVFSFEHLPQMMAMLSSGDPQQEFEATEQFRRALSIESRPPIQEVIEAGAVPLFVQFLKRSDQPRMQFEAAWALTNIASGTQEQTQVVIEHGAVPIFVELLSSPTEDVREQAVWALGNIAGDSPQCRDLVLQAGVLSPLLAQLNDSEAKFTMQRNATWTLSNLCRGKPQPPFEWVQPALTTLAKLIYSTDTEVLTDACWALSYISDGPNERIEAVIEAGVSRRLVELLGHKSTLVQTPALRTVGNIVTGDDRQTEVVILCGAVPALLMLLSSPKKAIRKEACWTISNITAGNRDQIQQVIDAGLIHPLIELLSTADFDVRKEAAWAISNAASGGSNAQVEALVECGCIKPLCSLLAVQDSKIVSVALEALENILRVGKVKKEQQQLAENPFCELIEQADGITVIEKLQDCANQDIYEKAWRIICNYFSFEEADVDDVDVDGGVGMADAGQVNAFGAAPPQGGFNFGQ
Method: (§4) CD spectroscopy experiments were carried out to assess direct binding of moxidectin and ivermectin to different IMPαs as described. CD spectra at […] protein concentration were recorded from 200–260 nm using a Jasco CD spectrometer (Jasco, Easton, MD, USA) in the absence and presence of 30 or 80 μM ivermectin or moxidectin, with percentage α-helix content estimated from the ellipticity at 222 nm as described using the CD Multivariate secondary structure estimation analysis program.

MmΔIBBIMPα:T-ag-NLS-GFP = target: T3, MmΔIBBIMPα:T-ag-NLS-GFP (Mus musculus, UniProt P52293); experiment: AlphaScreen binding assay, inhibition of MmΔIBBIMPα binding to T-ag-NLS-GFP
T3 construct: made in house

PfIMPα [5] = target: T4, PfIMPα (Plasmodium falciparum, UniProt Q8IAW0); experiment: Far-UV CD spectroscopy, PfIMPα; assay type: binding; conditions: 30 or 80 μM compound
T4 sequence (Q8IAW0 entry or part of it): as the sequence (Q8IAW0 entry or part of it) above
Method: as §4

TgIMPα [6] = target: T2, TgIMPα; experiment: Intrinsic tryptophan fluorescence assay, TgIMPα; assay type: binding
Method: as §3

MmIMPα:MmIMPβ1 = target: T5, MmIMPα:MmIMPβ1 (Mus musculus, UniProt P52293); experiment: AlphaScreen binding assay, inhibition of MmIMPα binding to MmIMPβ1
T5 construct: GST; made in house

PfIMPα [7] = target: T4, PfIMPα; experiment: Intrinsic tryptophan fluorescence assay, PfIMPα; assay type: binding
Method: as §3

TgIMPα:MmIMPβ1 = TgIMPα:MmIMPβ1 (Toxoplasma gondii, UniProt A0A125YID0); experiment: AlphaScreen binding assay, inhibition of TgIMPα binding to MmIMPβ1
TgIMPα:MmIMPβ1, sequence (P70168 whole entry): as the sequence (P70168 whole entry, further chain, the tested form may be a part) above
TgIMPα:MmIMPβ1, sequence (A0A125YID0 entry or part of it): as the sequence (A0A125YID0 entry or part of it) above
Method: as §2, §1

MmIMPα [8] = target: T1, MmIMPα; experiment: Far-UV CD spectroscopy, MmIMPα; assay type: binding; conditions: 30 or 80 μM compound
Method: as §4

TgIMPα:T-ag-NLS-GFP = TgIMPα:T-ag-NLS-GFP (Toxoplasma gondii, UniProt A0A125YID0); experiment: AlphaScreen binding assay, inhibition of TgIMPα binding to T-ag-NLS-GFP
TgIMPα:T-ag-NLS-GFP, sequence (A0A125YID0 entry or part of it): as above
Method: as §2, §1

[9] = Plasmodium falciparum, 3D7, 72 h, asexual stages, pooled, mean ± SD (n = 3)
[10] = Plasmodium falciparum, 3D7, 72 h, single typical experiment of Figure 5, duplicate
[11] = single experiment of Figure 1b, quadruplet wells
[12] = pooled, mean ± SEM (n = 3), MmIMPβ1 30 nM, IMPα 30 nM
[13] = single typical experiment of Figure 2, quadruplet wells
[14] = pooled, mean ± SEM (n = 3), IMPα 1 µM, 340 nm
[15] = single typical set of measurements, Figure 4b

## C[C@H]1[C@@H](O)O[C@@H]2O[C@@]3(C)CC[C@H]4[C@H](C)CC[C@@H]1[C@@]24OO3 [DHA, dihydroartemisinin]
P. falciparum 3D7 strain; [9]
  IC50: 0.001 ± 0.0005 µM
P. falciparum 3D7 strain; [10]
  IC50: 0.0007 µM

## CO/N=C1\C[C@]2(C[C@@H]3C[C@@H](C/C=C(\C)C[C@@H](C)/C=C/C=C4\CO[C@@H]5[C@H](O)C(C)=C[C@@H](C(=O)O3)[C@]45O)O2)O[C@H](/C(C)=C/C(C)C)[C@H]1C [Moxidectin, moxidectin]
PfIMPα:TGS1-NLS-GFP; pooled, mean ± SEM (n = 3), IMPα 5 nM, NLS protein 30 nM
  IC50: 4.8 ± 0.4 µM
PfIMPα:TGS1-NLS-GFP; [11]
  IC50: 4.6 µM
[1]
  CC50 at 48 h: ~10 µM
PfIMPα:MmIMPβ1; [12]
  IC50: 3.4 ± 0.4 µM
PfIMPα:MmIMPβ1; [13]
  IC50: 3.8 µM
MmIMPα [2]
  Kd: 4.1 ± 0.2 µM
[3]
  IC50: 35 ± 3.1 µM
[3]; Toxoplasma gondii
  IC50: 30 to 35 µM
P. falciparum 3D7 strain; [9]
  IC50: 1 µM
P. falciparum 3D7 strain; [10]
  IC50: 0.8 µM
P. falciparum 3D7 strain; asexual stages, 72 h, pooled, mean ± SD (n = 3)
  IC50: 0.9 ± 0.1 µM
TgIMPα [4]
  Effect on α-helicity of TgIMPα (CD spectra): concentration-dependent reduction in α-helicity
MmΔIBBIMPα:T-ag-NLS-GFP; pooled, mean ± SEM (n = 3), IMPα 5 nM, NLS protein 30 nM, read-out: IC50 inhibition of MmΔIBBIMPα:Tag-NLS-GFP binding
  IC50: 3.6 ± 0.5 µM
MmΔIBBIMPα:T-ag-NLS-GFP; [11]
  IC50: 2.8 µM
PfIMPα [5]
  Effect on α-helicity of PfIMPα (CD spectra): concentration-dependent reduction in α-helicity
TgIMPα [6]; [14]
  Kd: 19 ± 2.2 µM
TgIMPα [6]; [15]
  Kd: 19.3 µM
MmIMPα:MmIMPβ1; [12]
  IC50: ~4 µM and 4 µM
MmIMPα:MmIMPβ1; [13]
  IC50: 4.7 µM
PfIMPα [7]; [14]
  Kd: 7.8 ± 1.2 µM
PfIMPα [7]; [15]
  Kd: 8.3 µM
TgIMPα:MmIMPβ1; [12]
  IC50: 2.7 ± 0.2 µM
TgIMPα:MmIMPβ1; [13]
  IC50: 3.2 µM
MmIMPα [8]
  Effect on α-helicity of MmIMPα (CD spectra): concentration-dependent reduction in α-helicity
TgIMPα:T-ag-NLS-GFP; pooled, mean ± SEM (n = 3), IMPα 5 nM, NLS protein 30 nM, read-out: IC50 inhibition of TgIMPα:Tag-NLS-GFP binding
  IC50: 3.8 ± 0.8 µM
TgIMPα:T-ag-NLS-GFP; [11]
  IC50: 3.6 µM
